# From ChEMBL document CHEMBL5233288, “Ginkgo Biflavones Cause p53 Wild-Type Dependent Cell Death in a Transcription-Independent Manner of p53” (J Nat Prod, 2023)
# Calls of active or inactive are those of the source. The rule behind the calls is not given here.
# Key:
# [1] = biological target: Cellular tumor antigen p53 (Homo sapiens) (UniProt P04637); assay: Inhibition of p53 transcriptional activity in human HCT-116 cells assessed as inhibition of protein binding to p21 DNA promoter region at 20 uM incubated for 24 hrs by ChIP analysis; assay type: cell-based
# HCT-116 [2] = assay: Induction of cell cycle arrest in human HCT-116 cells expressing wild type p53 assessed as accumulation of cells at G1 phase at 5 uM incubated for 24 hrs by PI staining based flow cytometry (reference value: 62.5 to 66.7%); assay type: functional
# HCT-116 [3] = assay: Potentiation of 5-FU-induced cytotoxicity in human HCT-116 cells assessed as reduction in cell viability at 10 uM incubated for 24 hrs in presence of 10 uM 5-FU by resazurin based analysis; assay type: functional
# HCT-116 [4] = assay: Increase in mitochondrial complex I activity in human HCT-116 cells at 20 uM incubated for 24 hrs; assay type: functional, cell-based
# HCT-116 [5] = assay: Cytotoxicity against human HCT-116 cells assessed as reduction in cell viability at 10 uM incubated for 72 hrs in presence of autophagy inhibitor, 3-methyladenine by resazurin-based analysis; assay type: functional
# HCT-116 [6] = assay: Induction of apoptosis in human HCT-116 cells expressing wild type p53 assessed as late apoptotic cells at 20 uM incubated for 48 hrs by Annexin V-FITC/PI staining based flow cytometry (reference value: 5.37%); assay type: functional
# HCT-116 [7] = assay: Upregulation of p53 protein expression in human HCT-116 cells expressing wild type p53 incubated for 24 hrs by western blot analysis; assay type: functional, cell-based; conditions: dose 2.5-20 µM
# HCT-116 [8] = assay: Cytotoxicity against human HCT-116 cells assessed as reduction in cell viability at 10 uM incubated for 72 hrs in presence of apoptosis inhibitor, Z-VAD-FMK by resazurin-based analysis; assay type: functional
# HCT-116 [9] = assay: Induction of mitochondrial membrane potential depolarization in human HCT-116 cells assessed as reduction in mitochondrial membrane potential at 20 uM incubated for 24 hrs by JC-1 staining based fluorescence analysis; assay type: functional, cell-based
# HCT-116 [10] = assay: Upregulation of p21 protein expression in human HCT-116 cells at 20 uM incubated for 24 hrs by western blot analysis; assay type: functional, cell-based
# HCT-116 [11] = assay: Induction of cell cycle arrest in human HCT-116 cells expressing wild type p53 assessed as accumulation of cells at S phase at 20 uM incubated for 24 hrs by PI staining based flow cytometry (reference value: 0.52 to 3.83%); assay type: functional
# HCT-116 [12] = assay: Upregulation of p53 protein expression in human HCT-116 cells at 10 uM incubated for 24 hrs in presence of 10 uM 5-FU by western blot analysis; assay type: functional, cell-based
# HCT-116 [13] = assay: Cytotoxicity against human HCT-116 cells expressing wild type p53 assessed as induction of cell death at 20 uM incubated for 72 hrs by resazurin based analysis; assay type: functional
# RKO = assay: Cytotoxicity against human RKO cells expressing wild type p53 assessed as induction of cell death at 20 uM incubated for 72 hrs by resazurin based analysis; assay type: functional
# HCT-116 [14] = assay: Induction of cell cycle arrest in human HCT-116 cells expressing wild type p53 assessed as accumulation of cells at G1 phase at 20 uM incubated for 24 hrs by PI staining based flow cytometry (reference value: 62.5 to 66.7%); assay type: functional
# HCT-116 [15] = assay: Induction of apoptosis in human HCT-116 cells expressing wild type p53 assessed as viable cells at 20 uM incubated for 48 hrs by Annexin V-FITC/PI staining based flow cytometry (reference value: 82.2%); assay type: functional; conditions: read-out: Activity
# HCT-116 [16] = assay: Induction of cell cycle arrest in human HCT-116 cells expressing wild type p53 assessed as accumulation of cells at G1 phase at 10 uM incubated for 24 hrs by PI staining based flow cytometry (reference value: 62.5 to 66.7%); assay type: functional
# HCT-116 [17] = assay: Downregulation of MDM2 protein expression in human HCT-116 cells at 10 uM incubated for 24 hrs by western blot analysis; assay type: functional, cell-based
# HCT-116 [18] = assay: Induction of cell cycle arrest in human HCT-116 cells expressing wild type p53 assessed as accumulation of cells at G2 phase at 20 uM incubated for 24 hrs by PI staining based flow cytometry (reference value: 30.7 to 31.5%); assay type: functional
# HCT-116 [19] = assay: Induction of apoptosis in human HCT-116 cells expressing wild type p53 assessed as early apoptotic cells at 10 uM incubated for 48 hrs by Annexin V-FITC/PI staining based flow cytometry (reference value: 12.5%); assay type: functional
# HCT-116 [20] = assay: Upregulation of BAX protein expression in human HCT-116 cells at 20 uM incubated for 24 hrs by western blot analysis; assay type: functional, cell-based
# HCT-116 [21] = assay: Induction of cell cycle arrest in human HCT-116 cells expressing wild type p53 assessed as accumulation of cells at S phase at 5 uM incubated for 24 hrs by PI staining based flow cytometry (reference value: 0.52 to 3.83%); assay type: functional
# HCT-116 [22] = assay: Induction of ferroptosis in human HCT-116 cells assessed as reduction in GSH content at 20 uM incubated for 24 hrs; assay type: functional, cell-based
# HCT-116 [23] = assay: Upregulation of p53 protein expression in human HCT-116 cells expressing wild type p53 at 20 uM incubated for 24 hrs by western blot analysis; assay type: functional, cell-based
# HCT-116 [24] = assay: Induction of ferroptosis in human HCT-116 cells assessed as increase in iron content at 20 uM incubated for 24 hrs; assay type: functional, cell-based
# LoVo = assay: Cytotoxicity against human LoVo cells expressing wild type p53 assessed as induction of cell death at 20 uM incubated for 72 hrs by resazurin based analysis; assay type: functional
# SW-620 = assay: Cytotoxicity against human SW620 cells expressing p53 mutant assessed as induction of cell death at 20 uM incubated for 72 hrs by resazurin based analysis; assay type: functional
# HCT-116 [25] = assay: Upregulation of p53 protein expression in human HCT-116 cells at 10 uM incubated for 24 hrs by western blot analysis; assay type: functional, cell-based
# HCT-116 [26] = assay: Induction of apoptosis in human HCT-116 cells expressing wild type p53 assessed as necrotic cells at 20 uM incubated for 48 hrs by Annexin V-FITC/PI staining based flow cytometry (reference value: 0.44%); assay type: functional
# HCT-116 [27] = assay: Induction of apoptosis in human HCT-116 cells expressing wild type p53 assessed as late apoptotic cells at 10 uM incubated for 48 hrs by Annexin V-FITC/PI staining based flow cytometry (reference value: 5.06%); assay type: functional
# HCT-116 [28] = assay: Cytotoxicity against human HCT-116 cells deficit of p53 expression assessed as induction of cell death at 20 uM incubated for 72 hrs by resazurin based analysis; assay type: functional
# HCT-116 [29] = assay: Downregulation of MDM2 protein expression in human HCT-116 cells at 10 uM incubated for 24 hrs in presence of 10 uM 5-FU by western blot analysis; assay type: functional, cell-based
# HCT-116 [30] = assay: Upregulation of phosphorylated p53 expression in human HCT-116 cells expressing wild type p53 at 20 uM incubated for 24 hrs by western blot analysis; assay type: functional, cell-based
# HCT-116 [31] = assay: Induction of intracellular ROS generation in human HCT-116 cells at 20 uM incubated for 24 hrs by DCFH-DA staining based fluorescence analysis; assay type: functional, cell-based
# HCT-116 [32] = assay: Induction of apoptosis in human HCT-116 cells expressing wild type p53 assessed as viable cells at 10 uM incubated for 48 hrs by Annexin V-FITC/PI staining based flow cytometry (reference value: 82%); assay type: functional; conditions: read-out: Activity
# Sequence of Cellular tumor antigen p53 (Homo sapiens) (P04637 whole entry, looked up): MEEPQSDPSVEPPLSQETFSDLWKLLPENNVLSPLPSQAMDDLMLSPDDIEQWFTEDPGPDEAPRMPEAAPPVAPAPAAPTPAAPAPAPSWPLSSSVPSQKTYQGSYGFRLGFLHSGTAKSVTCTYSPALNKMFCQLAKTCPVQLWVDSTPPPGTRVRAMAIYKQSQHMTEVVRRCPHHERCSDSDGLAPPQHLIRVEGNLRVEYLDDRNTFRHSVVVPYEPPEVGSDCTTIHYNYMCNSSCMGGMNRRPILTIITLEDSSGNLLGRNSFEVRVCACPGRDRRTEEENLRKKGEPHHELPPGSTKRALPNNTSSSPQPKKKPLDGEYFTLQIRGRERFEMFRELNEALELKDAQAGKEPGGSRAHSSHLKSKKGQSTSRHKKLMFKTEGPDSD
inhibition [1],SMILES,Activity (HCT-116 [2]),Activity (HCT-116 [3]),Activity (HCT-116 [4]),Activity (HCT-116 [5]),Activity (HCT-116 [6]),Activity (HCT-116 [7]),Activity (HCT-116 [8]),Activity (HCT-116 [9]),Activity (HCT-116 [10]),Activity (HCT-116 [11]),Activity (HCT-116 [12]),Activity (HCT-116 [13]),Activity (RKO),Activity (HCT-116 [14]),viability at 20 µM (HCT-116 [15]),Activity (HCT-116 [16]),inhibition (HCT-116 [17]),Activity (HCT-116 [18]),Activity (HCT-116 [19]),further results
Active,COc1ccc(-c2cc(=O)c3c(O)cc(O)c(-c4cc(-c5cc(=O)c6c(O)cc(O)cc6o5)ccc4OC)c3o2)cc1 [ISOGINKGETIN],58.4%,Active,Active,inactive,9.54%,Dose-Dependent Effect,inactive,Active,inactive,3.82%,Active,Active,Active,47.3%,49.1%,52.6%,Active,46.6%,26.5%,Activity (HCT-116 [20]): inactive; Activity (HCT-116 [21]): 3.37%; Activity (HCT-116 [22]): Active; Activity (HCT-116 [23]): Active; Activity (HCT-116 [24]): Active; Activity (LoVo): Active; Activity (SW-620): inactive; Activity (HCT-116 [25]): Active; Activity (HCT-116 [26]): 0.79%; Activity (HCT-116 [27]): 2.58%; Activity (HCT-116 [28]): inactive; inhibition (HCT-116 [29]): Active; Activity (HCT-116 [30]): Active; Activity (HCT-116 [31]): Active; viability at 10 µM (HCT-116 [32]): 70%
Active,COc1ccc(-c2cc(=O)c3c(O)cc(O)cc3o2)cc1-c1c(O)cc(O)c2c(=O)cc(-c3ccc(O)cc3)oc12 [BILOBETIN],64.4%,Active,Active,inactive,6.94%,Dose-Dependent Effect,inactive,Active,inactive,7.24%,Active,Active,Active,51.2%,52.6%,59.9%,Active,41%,28%,Activity (HCT-116 [20]): inactive; Activity (HCT-116 [21]): 1.81%; Activity (HCT-116 [22]): Active; Activity (HCT-116 [23]): Active; Activity (HCT-116 [24]): Active; Activity (LoVo): Active; Activity (SW-620): inactive; Activity (HCT-116 [25]): Active; Activity (HCT-116 [26]): 0.49%; Activity (HCT-116 [27]): 3.58%; Activity (HCT-116 [28]): inactive; inhibition (HCT-116 [29]): Active; Activity (HCT-116 [30]): Active; Activity (HCT-116 [31]): Active; viability at 10 µM (HCT-116 [32]): 67.9%
Active,COc1cc(O)c2c(=O)cc(-c3ccc(OC)c(-c4c(O)cc(O)c5c(=O)cc(-c6ccc(O)cc6)oc45)c3)oc2c1 [GINKGETIN],58.1%,Active,Active,inactive,10.5%,Dose-Dependent Effect,inactive,Active,inactive,1.47%,Active,Active,Active,45.3%,55.4%,51.2%,Active,52.1%,25.8%,Activity (HCT-116 [20]): inactive; Activity (HCT-116 [21]): 1.2%; Activity (HCT-116 [22]): Active; Activity (HCT-116 [23]): Active; Activity (HCT-116 [24]): Active; Activity (LoVo): Active; Activity (SW-620): inactive; Activity (HCT-116 [25]): Active; Activity (HCT-116 [26]): 0.54%; Activity (HCT-116 [27]): 5.69%; Activity (HCT-116 [28]): inactive; inhibition (HCT-116 [29]): Active; Activity (HCT-116 [30]): Active; Activity (HCT-116 [31]): Active; viability at 10 µM (HCT-116 [32]): 67.6%
